This note sets out measurements from US10736883B2, “Triazole furan compounds as agonists of the APJ receptor” (AMGEN INC., priority 2016, dated 2020).

The test system of test [1] is isolated perfused rat hearts. The test is described as follows: Ex vivo isolated perfused rat heart (Langendorff) assay, load independent inotropic/lusitropic effects. The note with it: percent change over vehicle; for Isolated Heart Assay dP/dtmax (%): contractility; for Isolated Heart Assay dP/dtmin (%): relaxation. The source says:
Evidence for Load Independent Inotropic Effects with APJ Agonists Using Ex Vivo Assay (Isolated Perfused Rat Hearts)
Naive Sprague Dawley® SD rats (Harlan laboratories (Livermore, Calif. USA)) were anaesthetized and hearts were excised followed by cannulation in the Langendorff apparatus (Harvard apparatus, Holliston, Mass. USA) via aorta. The heart was perfused retrograde with modified oxygenated Krebs-Henseleit buffer (Skrzypiec-Spring M et al., (2007) J. Pharmacol Toxicol Methods 55: 113-126). The pressure of the solution causes the aortic valve to shut and the perfusate is then forced into the ostium and the coronary vessels. This allows the heart to beat for several hours. A balloon was inserted into the left ventricle (LV) to measure dP/dtmax (derivative of left ventricular pressure) as an index of cardiac contractility. The APJ agonist was perfused constantly in a dose dependent manner into the heart to examine cardiac contractility.
Example 210.0 was infused at different concentrations and load independent contractility was measured by index of LV dP/dtmax and the results are expressed as a percent change over vehicle. […] Example 210.0 was infused at different concentrations and load independent lusitropic effect (relaxation) was measured by index of LV dP/dtmin where results are expressed as percent change over vehicle. […] Example 51.0 was infused at different concentrations and load independent contractility was measured by index of LV dP/dtmax and the results are expressed as a percent change over vehicle. […] Example 51.0 was infused at different concentrations and load independent lusitropic effect (relaxation) was measured by index of LV dP/dtmin where results are expressed as percent change over vehicle.

Another test concerns the target APJ receptor (Homo sapiens (Human), UniProt P35414). As to the kind of experiment: [35S]GTPγS binding assay on membranes from CHO cells stably expressing human APJ receptor. The format is biochemical. As to conditions: membranes of CHO cells stably expressing human APJ receptor, means of several independent experiments, read-out: Activity hAPJ SPA EC50 IP. In a few lines:
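EC50 values were obtained by non-linear regression of [35S]GTPγS (0.2 nM) binding after 90 min at RT, with nonspecific binding defined by 100 μM GTPγS. Reactions used human APJ–expressing CHO cell membranes on WGA PS beads in HEPES pH 7.5 buffer with 5 mM MgCl2, 200 mM NaCl, 3 μM GDP and 0.1% BSA.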

For a further test, the system named is heart failure rat model. The test is described as follows: In vivo cardiac contractility in heart failure (MI) rat model. As to conditions: heart failure rats (LAD ligation), acute administration for 30 min. As for the experimental part: Evidence for Improvement in Cardiac Contractility In Vivo in Heart Failure Rat Model
Based on the ex vivo findings in isolated heart assay, APJ agonists were dosed in vivo to investigate the translation of cardiac contractility in in vivo settings. Male Lewis rats (Charles River, USA) at 2-3 months of age were used for the study. Heart failure was induced by permanent ligation of the left descending coronary artery which results in injury to the heart with an ejection fraction of <35%. APJ agonists were administered dose dependently acutely for a period of 30 min. Administration of example compounds lead to an increase in cardiac contractility as measured by dP/dtmax (derivative of left ventricular pressure) (Table 27).

Sequence of APJ receptor (P35414 whole entry): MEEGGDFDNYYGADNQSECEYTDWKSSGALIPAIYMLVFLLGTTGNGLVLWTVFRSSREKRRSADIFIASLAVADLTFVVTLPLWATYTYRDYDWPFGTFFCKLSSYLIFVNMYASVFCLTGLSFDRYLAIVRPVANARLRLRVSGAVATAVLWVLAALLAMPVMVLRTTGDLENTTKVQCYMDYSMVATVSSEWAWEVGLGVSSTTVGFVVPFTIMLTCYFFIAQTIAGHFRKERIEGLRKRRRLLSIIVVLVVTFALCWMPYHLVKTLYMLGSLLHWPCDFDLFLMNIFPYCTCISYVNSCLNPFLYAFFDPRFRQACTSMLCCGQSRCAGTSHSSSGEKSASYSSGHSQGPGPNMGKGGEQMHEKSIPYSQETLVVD

With `COc1cccc(OC)c1-n1c(NS(=O)(=O)[C@@H](C)[C@H](OC)c2ncc(C)cn2)nnc1-c1ccc(C)o1` [Example 261.0], in test [1], the “Isolated Heart Assay dP/dtmax (%)” value came out at 34.5% and the “Isolated Heart Assay dP/dtmin (%)” value was determined as 53.8%. Besides, the EC50 on APJ receptor was 0.13 nM. For the same molecule, the “MI Rat Model dP/dtmax (%)” value with heart failure rat model is on record as 30%.

For the molecule `COc1cccc(OC)c1-n1c(NS(=O)(=O)[C@@H](C)Cc2ncc(F)cn2)nnc1-c1ccco1` (single isomer, unassigned) [Example 51.0, (2S)—N-(4-(2,6-Dimethoxyphenyl)-5-(2-furanyl)-4H-1,2,4-triazol-3-yl)-1-(5-fluoro-2-pyrimidinyl)-2-propanesulfonamide or (2R)—N-(4-(2,6-dimethoxyphenyl)-5-(2-furanyl)-4H-1,2,4-triazol-3-yl)-1-(5-fluoro-2-pyrimidinyl)-2-propanesulfonamide], in test [1], the “Isolated Heart Assay dP/dtmax (%)” value is listed as 40.6% and the “Isolated Heart Assay dP/dtmin (%)” value stood at 33.8%. In addition, at APJ receptor, the half-maximal effective concentration (EC50) came out at 1 nM. Besides, in the test on heart failure rat model, the “MI Rat Model dP/dtmax (%)” value is 38%. In the case of `COc1cccc(OC)c1-n1c(NS(=O)(=O)CCc2ccc(F)cn2)nnc1-c1ccco1` [Example 41.0, N-(4-(2,6-dimethoxyphenyl)-5-(2-furanyl)-4H-1,2,4-triazol-3-yl)-2-(5-fluoro-2-pyridinyl)ethanesulfonamide], in test [1], the “Isolated Heart Assay dP/dtmax (%)” value is given as 22.1% and the “Isolated Heart Assay dP/dtmin (%)” value was determined as 22.7%.

Turning to `COc1cccc(OC)c1-n1c(NS(=O)(=O)CCc2ccc(Cl)cc2)nnc1-c1ccco1` [Example 111.0, 2-(4-Chlorophenyl)-N-(4-(2,6-dimethoxyphenyl)-5-(furan-2-yl)-4H-1,2,4-triazol-3-yl)ethanesulfonamide], in test [1], the “Isolated Heart Assay dP/dtmax (%)” value is listed as 19.5% and the “Isolated Heart Assay dP/dtmin (%)” value was 24.9%. Further, the EC50 on APJ receptor came out at 7.8 nM. In addition, the “MI Rat Model dP/dtmax (%)” value with heart failure rat model is 97%.

Consider `COc1cccc(OC)c1-n1c(NS(=O)(=O)[C@@H](C)Cc2ncc(F)cn2)nnc1-c1ccc(C)o1` (single isomer, unassigned) [Example 108.0, (2S)—N-(4-(2,6-Dimethoxyphenyl)-5-(5-methyl-2-furanyl)-4H-1,2,4-triazol-3-yl)-1-(5-fluoro-2-pyrimidinyl)-2-propanesulfonamide or (2R)—N-(4-(2,6-dimethoxyphenyl)-5-(5-methyl-2-furanyl)-4H-1,2,4-triazol-3-yl)-1-(5-fluoro-2-pyrimidinyl)-2-propanesulfonamide], for which, in test [1], the “Isolated Heart Assay dP/dtmax (%)” value is on record as 38.8% and the “Isolated Heart Assay dP/dtmin (%)” value worked out at 30.1%. Besides, on APJ receptor, the concentration for a half-maximal effect (EC50) was found to be 0.25 nM. As to `COc1cccc(OC)c1-n1c(NS(=O)(=O)[C@H](C)Cc2ccc(Cl)cc2)nnc1-c1ccco1` (single isomer, unassigned) [Example 205.0, (2R)-1-(4-chlorophenyl)-N-(4-(2,6-dimethoxyphenyl)-5-(2-furanyl)-4H-1,2,4-triazol-3-yl)-2-propanesulfonamide or (2S)-1-(4-chlorophenyl)-N-(4-(2,6-dimethoxyphenyl)-5-(2-furanyl)-4H-1,2,4-triazol-3-yl)-2-propanesulfonamide], in test [1], the “Isolated Heart Assay dP/dtmax (%)” value came to 18.8% and the “Isolated Heart Assay dP/dtmin (%)” value was 20.5%. Also, the EC50 at APJ receptor is 2.3 nM. Take `C[C@@H](Cc1ncc(F)cn1)S(=O)(=O)Nc1nnc(-c2ccco2)n1-c1ccccc1F` (racemic) [Example 312.0, (2R)—N-(4-(2-Fluorophenyl)-5-(2-furanyl)-4H-1,2,4-triazol-3-yl)-1-(5-fluoro-2-pyrimidinyl)-2-propanesulfonamide and (2S)—N-(4-(2-fluorophenyl)-5-(2-furanyl)-4H-1,2,4-triazol-3-yl)-1-(5-fluoro-2-pyrimidinyl)-2-propanesulfonamide]: the EC50 on APJ receptor was found to be 210 nM. For the molecule “(1R,2S)-1-(5-chloro-2-pyrimidinyl)-N-(4-(2,6-dimethoxyphenyl)-5-(5-methyl-2-furanyl)-4H-1,2,4-triazol-3-yl)-1-hydroxy-2-propanesulfonamide or (1S,2R)-1-(5-chloro-2-pyrimidinyl)-N-(4-(2,6-dimethoxyphenyl)-5-(5-methyl-2-furanyl)-4H-1,2,4-triazol-3-yl)-1-hydroxy-2-propanesulfonamide [Example 216.0]”, the EC50 on APJ receptor came out at 0.23 nM. Take `CO[C@H](c1ncc(Cl)cn1)[C@H](C)S(=O)(=O)Nc1nnc(-c2ccc(C)o2)n1[C@@H]1CCCOC1` [Example 391.0, (1R,2S)-1-(5-chloropyrimidin-2-yl)-1-methoxy-N-(5-(5-methylfuran-2-yl)-4-((R)-tetrahydro-2H-pyran-3-yl)-4H-1,2,4-triazol-3-yl)propane-2-sulfonamide]: the EC50 at APJ receptor stood at 8.4 nM. Same read-out and setting: for `COc1cccc(OC)c1-n1c(NS(=O)(=O)[C@H](C)Cc2ccc(C)nn2)nnc1-c1ccc(C)o1` (single isomer, unassigned) [Example 31.0, (2R)—N-(4-(2,6-dimethoxyphenyl)-5-(5-methyl-2-furanyl)-4H-1,2,4-triazol-3-yl)-1-(6-methyl-3-pyridazinyl)-2-propanesulfonamide or (2S)—N-(4-(2,6-dimethoxyphenyl)-5-(5-methyl-2-furanyl)-4H-1,2,4-triazol-3-yl)-1-(6-methyl-3-pyridazinyl)-2-propanesulfonamide] the value was 1.9 nM; for `COc1cccc(OC)c1-n1c(NS(=O)(=O)[C@@H](C)[C@](C)(N)c2ncc(F)cn2)nnc1-c1ccc(C)o1` (single isomer, unassigned) [Example 246.0], 1.4 nM. The same measure, in the same setting: for `COc1cccc(OC)c1-n1c(NS(=O)(=O)[C@H]2COC[C@@H]2c2ncc(F)cn2)nnc1-c1ccco1` (racemic) [Example 180.0, (3R,4S)—N-(4-(2,6-Dimethoxyphenyl)-5-(2-furanyl)-4H-1,2,4-triazol-3-yl)-4-(5-fluoro-2-pyrimidinyl)tetrahydro-3-furansulfonamide and (3S,4R)—N-(4-(2,6-dimethoxyphenyl)-5-(2-furanyl)-4H-1,2,4-triazol-3-yl)-4-(5-fluoro-2-pyrimidinyl)tetrahydro-3-furansulfonamide] the value was 3.6 nM. With `COc1ccccc1-n1c(NS(=O)(=O)[C@@H](C)[C@H](C)c2ncc(F)cn2)nnc1-c1ccc(C)o1` [Example 172.0, (2S,3R)-3-(5-Fluoro-2-pyrimidinyl)-N-(4-(2-methoxyphenyl)-5-(5-methyl-2-furanyl)-4H-1,2,4-triazol-3-yl)-2-butanesulfonamide], at APJ receptor, the 50% effective concentration (EC50) was found to be 1.2 nM. Same read-out and setting: with `COc1cccc(OC)c1-n1c(NS(=O)(=O)[C@@H](C)[C@H](O)c2cn3ccccc3n2)nnc1-c1ccc(C)o1` (single isomer, unassigned) [Example 289.0, (1R,2S)—N-(4-(2,6-Dimethoxyphenyl)-5-(5-methyl-2-furanyl)-4H-1,2,4-triazol-3-yl)-1-hydroxy-1-imidazo[1,2-a]pyridin-2-yl-2-propanesulfonamide or (1S,2R)—N-(4-(2,6-dimethoxyphenyl)-5-(5-methyl-2-furanyl)-4H-1,2,4-triazol-3-yl)-1-hydroxy-1-imidazo[1,2-a]pyridin-2-yl-2-propanesulfonamide] the figure was 4.9 nM. On the same count and under the same terms, for `COc1cccc(OC)c1-n1c(NS(=O)(=O)[C@@H](C)[C@@H](O)c2ccc(F)cn2)nnc1-c1ccc(C)o1` (single isomer, unassigned) [Example 59.0] the value was 0.16 nM; for `COc1cccc(OC)c1-n1c(NS(=O)(=O)CCN2C(=O)[C@H](C)C[C@H]2C)nnc1-c1ccco1` (single isomer, unassigned) [Example 175.0], 1.9 nM. Regarding `COc1cccc(OC)c1-n1c(NS(=O)(=O)[C@@H](C)[C@@H](O)c2ccc(F)cn2)nnc1-c1ccc(C)o1` (single isomer, unassigned) [Example 57.0], at APJ receptor, the EC50 turned out to be 0.11 nM.
